Measured values from US8283353B2, “Fused ring compound and use thereof” (Takeda Pharmaceutical Company Limited, priority 2009, dated 2012).

Key:
human PPARγ = target: T1, human PPARγ (Homo sapiens, UniProt P37231); experiment: PPARγ agonistic activity: luciferase reporter assay in PPARγ:RXRα:4ERPP/CHO-K1 cells; assay type: cell-based; conditions: CHO-K1, test compound 10^−6 M; luciferase activity of control compound X (1 μM) = 100%, non-administration group = 0%
T1 construct: expressed in transfected cells
T1 sequence (P37231 1-477 isoform P37231-2): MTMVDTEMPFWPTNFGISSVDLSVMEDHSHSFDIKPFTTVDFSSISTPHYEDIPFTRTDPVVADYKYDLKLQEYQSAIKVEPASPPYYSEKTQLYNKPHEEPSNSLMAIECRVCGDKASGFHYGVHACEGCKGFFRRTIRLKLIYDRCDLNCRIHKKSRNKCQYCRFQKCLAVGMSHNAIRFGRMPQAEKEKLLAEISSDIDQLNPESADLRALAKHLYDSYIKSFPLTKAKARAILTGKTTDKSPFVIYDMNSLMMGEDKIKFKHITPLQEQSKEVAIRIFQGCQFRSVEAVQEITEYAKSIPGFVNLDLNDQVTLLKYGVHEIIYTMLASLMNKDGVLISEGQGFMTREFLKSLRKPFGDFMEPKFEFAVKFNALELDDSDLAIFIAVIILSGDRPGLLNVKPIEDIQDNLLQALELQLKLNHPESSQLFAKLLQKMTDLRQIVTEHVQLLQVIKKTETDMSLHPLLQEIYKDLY
T1 sequence (P19793 1-462 partner): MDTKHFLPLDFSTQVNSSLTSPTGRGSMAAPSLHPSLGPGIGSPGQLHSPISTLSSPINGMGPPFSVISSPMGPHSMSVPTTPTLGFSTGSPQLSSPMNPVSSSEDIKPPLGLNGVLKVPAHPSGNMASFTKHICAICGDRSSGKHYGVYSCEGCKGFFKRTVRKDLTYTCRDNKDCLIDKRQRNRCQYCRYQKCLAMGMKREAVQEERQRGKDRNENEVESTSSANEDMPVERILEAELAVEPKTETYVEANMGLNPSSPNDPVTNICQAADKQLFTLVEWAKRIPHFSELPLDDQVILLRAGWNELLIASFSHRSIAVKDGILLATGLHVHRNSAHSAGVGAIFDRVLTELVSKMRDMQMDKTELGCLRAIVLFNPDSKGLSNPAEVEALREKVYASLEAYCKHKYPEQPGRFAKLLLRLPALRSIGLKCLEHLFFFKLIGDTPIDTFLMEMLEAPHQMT
In short: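 CHO-K1 cells stably carrying hPPARγ/RXRα and a 4ERPP luciferase reporter, dosed with test compound for 1 day at 37 °C in Ham's F12 with 0.1% fatty acid-free BSA. Luciferase read by luminescence; activity given as % of 1 μM control compound X (100%) versus untreated (0%).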

human AT1 receptor = target: T2, human AT1 receptor (Homo sapiens, UniProt P30556); experiment: AT1 receptor antagonistic activity: [125I]-angiotensin II binding assay on human AT1 receptor-expressing CHO-K1 cellular membrane fraction; conditions: 22.5 pM [125I]-angiotensin II, 1 hr room temperature
T2 construct: expressed in transfected cells; membrane fraction
T2 sequence (P30556 1-359): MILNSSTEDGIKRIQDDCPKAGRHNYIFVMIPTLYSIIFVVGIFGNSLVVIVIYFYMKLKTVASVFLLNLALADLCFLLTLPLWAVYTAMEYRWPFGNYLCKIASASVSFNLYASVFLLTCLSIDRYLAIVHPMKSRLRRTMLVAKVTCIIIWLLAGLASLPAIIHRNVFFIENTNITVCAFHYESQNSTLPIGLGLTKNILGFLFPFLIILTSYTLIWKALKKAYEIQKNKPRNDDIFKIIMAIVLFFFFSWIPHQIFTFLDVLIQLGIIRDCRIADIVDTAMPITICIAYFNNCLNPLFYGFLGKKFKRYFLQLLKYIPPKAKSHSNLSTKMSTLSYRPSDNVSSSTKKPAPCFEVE
In short: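 Competition binding used radiolabelled angiotensin II on stably transfected CHO-K1 membrane fractions in Tris pH 7.4/MgCl2 buffer, optionally containing 0.3 mg/mL fatty acid-free BSA, 1 hr at room temperature. Filtration onto GF/C separated bound tracer, and nonspecific binding was measured with candesartan.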

| Compound | activation at 1 µM (human PPARγ) [%] | IC50 (human AT1 receptor) [nM] |
| --- | --- | --- |
| CCCc1c(Cc2ccc(-c3ccccc3-c3noc(=O)[nH]3)cc2)c(=O)n(C/C(=N\OCC)C(F)(F)F)c2nc(C)nn12 [Example 107, 4-[(2E)-2-(ethoxyimino)-3,3,3-trifluoropropyl]-2-methyl-6-{[2′-(5-oxo-4,5-dihydro-1,2,4-oxadiazol-3-yl)biphenyl-4-yl]methyl}-7-propyl[1,2,4]triazolo[1,5-a]pyrimidin-5(4H)-one] | 16 | 1.9 |
| CCCc1c(Cc2ccc(-c3ccccc3-c3noc(=O)[nH]3)cc2F)c(=O)n(C2CCOCC2)c2nc(C)nn12 [Example 108, 6-{[3-fluoro-2′-(5-oxo-4,5-dihydro-1,2,4-oxadiazol-3-yl)biphenyl-4-yl]methyl}-2-methyl-7-propyl-4-(tetrahydro-2H-pyran-4-yl)[1,2,4]triazolo[1,5-a]pyrimidin-5(4H)-one] | 16 | 1.5 |
| CCCc1c(Cc2ccc(-c3ccccc3-c3noc(=O)[nH]3)cc2)c(=O)n(C2CCOCC2)c2ncnn12 [Example 109, 6-{[2′-(5-oxo-4,5-dihydro-1,2,4-oxadiazol-3-yl)biphenyl-4-yl]methyl}-7-propyl-4-(tetrahydro-2H-pyran-4-yl)[1,2,4]triazolo[1,5-a]pyrimidin-5(4H)-one] | 16 | 2.2 |
| CCCc1c(Cc2ccc(-c3ccccc3-c3noc(=O)[nH]3)cc2F)c(=O)n(C2CCSCC2)c2nc(C)nn12 [Example 113, 6-{[3-fluoro-2′-(5-oxo-4,5-dihydro-1,2,4-oxadiazol-3-yl)biphenyl-4-yl]methyl}-2-methyl-7-propyl-4-(tetrahydro-2H-thiopyran-4-yl)[1,2,4]triazolo[1,5-a]pyrimidin-5(4H)-one] | 20 | 1.5 |
| CCCc1c(Cc2ccc(-c3ccccc3-c3noc(=O)[nH]3)cc2)c(=O)n(C(C)/C(C)=N/OCC)c2nc(C)nn12 (stereo not shown) [Example 114, 4-[(2E)-2-(ethoxyimino)-1-methylpropyl]-2-methyl-6-{[2′-(5-oxo-4,5-dihydro-1,2,4-oxadiazol-3-yl)biphenyl-4-yl]methyl}-7-propyl[1,2,4]triazolo[1,5-a]pyrimidin-5(4H)-one] | 16 | 2 |
| CCCc1c(Cc2ccc(-c3ccccc3-c3noc(=O)[nH]3)cc2F)c(=O)n(C2CCOCC2)c2ncnn12 [Example 117, 6-{[3-fluoro-2′-(5-oxo-4,5-dihydro-1,2,4-oxadiazol-3-yl)biphenyl-4-yl]methyl}-7-propyl-4-(tetrahydro-2H-pyran-4-yl)[1,2,4]triazolo[1,5-a]pyrimidin-5(4H)-one] | 18 | 1.3 |
| CCCc1c(Cc2ccc(-c3ccccc3-c3noc(=O)[nH]3)cc2F)c(=O)n(C2CCCOC2)c2ncnn12 (stereo not shown) [Example 121, 6-{[3-fluoro-2′-(5-oxo-4,5-dihydro-1,2,4-oxadiazol-3-yl)biphenyl-4-yl]methyl}-7-propyl-4-(tetrahydro-2H-pyran-3-yl)[1,2,4]triazolo[1,5-a]pyrimidin-5(4H)-one] | 31 | 1.9 |
| CCCc1c(Cc2ccc(-c3ccccc3-c3noc(=O)[nH]3)cc2)c(=O)n(C2CCCOC2)c2ncnn12 (stereo not shown) [Example 124, 6-{[2′-(5-oxo-4,5-dihydro-1,2,4-oxadiazol-3-yl)biphenyl-4-yl]methyl}-7-propyl-4-(tetrahydro-2H-pyran-3-yl)[1,2,4]triazolo[1,5-a]pyrimidin-5(4H)-one] | 21 | 2.4 |
| CCCCc1c(Cc2ccc(-c3ccccc3-c3noc(=O)[nH]3)cc2)c(=O)n(C2CCOCC2)c2ncnn12 [Example 125, 7-butyl-6-{[2′-(5-oxo-4,5-dihydro-1,2,4-oxadiazol-3-yl)biphenyl-4-yl]methyl}-4-(tetrahydro-2H-pyran-4-yl)[1,2,4]triazolo[1,5-a]pyrimidin-5(4H)-one] | 23 | 1.9 |
| CCCc1c(C(C)c2ccc(-c3ccccc3-c3noc(=O)[nH]3)cc2)c(=O)n([C@H]2CC[C@H](OCC(C)(C)O)CC2)c2ncnn12 (stereo partly drawn) [Example 131, 4-[trans-4-(2-hydroxy-2-methylpropoxy)cyclohexyl]-6-{1-[2′-(5-oxo-4,5-dihydro-1,2,4-oxadiazol-3-yl)biphenyl-4-yl]ethyl}-7-propyl[1,2,4]triazolo[1,5-a]pyrimidin-5(4H)-one] | 15 | 2.9 |

Results, then the compound that gave them:

| activation at 1 µM (human PPARγ) [%] | IC50 (human AT1 receptor) [nM] | Compound |
| --- | --- | --- |
| 26 | 1.3 | CCCCc1c(Cc2ccc(-c3ccccc3-c3noc(=O)[nH]3)cc2)c(=O)n(C2CCOC(C)(C)C2)c2ncnn12 (stereo not shown) [Example 134, 7-butyl-4-(2,2-dimethyltetrahydro-2H-pyran-4-yl)-6-{[2′-(5-oxo-4,5-dihydro-1,2,4-oxadiazol-3-yl)biphenyl-4-yl]methyl}[1,2,4]triazolo[1,5-a]pyrimidin-5(4H)-one] |
| 26 | 0.9 | CCCCc1c(Cc2ccc(-c3ccccc3-c3noc(=O)[nH]3)cc2F)c(=O)n(C2CCOCC2)c2nc(C)nn12 [Example 135, 7-butyl-6-{[3-fluoro-2′-(5-oxo-4,5-dihydro-1,2,4-oxadiazol-3-yl)biphenyl-4-yl]methyl}-2-methyl-4-(tetrahydro-2H-pyran-4-yl)[1,2,4]triazolo[1,5-a]pyrimidin-5(4H)-one] |
| 17 | 1.3 | CCCc1c(Cc2ccc(-c3ccccc3-c3noc(=O)[nH]3)cc2F)c(=O)n(C2CCOC(C)(C)C2)c2nc(C)nn12 (stereo not shown) [Example 136, 4-(2,2-dimethyltetrahydro-2H-pyran-4-yl)-6-{[3-fluoro-2′-(5-oxo-4,5-dihydro-1,2,4-oxadiazol-3-yl)biphenyl-4-yl]methyl}-2-methyl-7-propyl[1,2,4]triazolo[1,5-a]pyrimidin-5(4H)-one] |
| 20 | 1.4 | CCCCc1c(Cc2ccc(-c3ccccc3-c3noc(=O)[nH]3)cc2)c(=O)n(C2CCOC(C)(C)C2)c2nc(C)nn12 (stereo not shown) [Example 137, 7-butyl-4-(2,2-dimethyltetrahydro-2H-pyran-4-yl)-2-methyl-6-{[2′-(5-oxo-4,5-dihydro-1,2,4-oxadiazol-3-yl)biphenyl-4-yl]methyl}[1,2,4]triazolo[1,5-a]pyrimidin-5(4H)-one] |
| 8 | 1.3 | CCCCc1c(Cc2ccc(-c3ccccc3-c3noc(=O)[nH]3)cc2)c(=O)n([C@@H]2C[C@@H](C)O[C@@H](C)C2)c2ncnn12 [Example 138, 7-butyl-4-[(2R,4s,6S)-2,6-dimethyltetrahydro-2H-pyran-4-yl]-6-{[2′-(5-oxo-4,5-dihydro-1,2,4-oxadiazol-3-yl)biphenyl-4-yl]methyl}[1,2,4]triazolo[1,5-a]pyrimidin-5(4H)-one] |
| 6 | 1.7 | CCCCc1c(Cc2ccc(-c3ccccc3-c3noc(=O)[nH]3)cc2)c(=O)n([C@H]2C[C@@H](C)O[C@@H](C)C2)c2ncnn12 [Example 139, 7-butyl-4-[(2R,4r,6S)-2,6-dimethyltetrahydro-2H-pyran-4-yl]-6-{[2′-(5-oxo-4,5-dihydro-1,2,4-oxadiazol-3-yl)biphenyl-4-yl]methyl}[1,2,4]triazolo[1,5-a]pyrimidin-5(4H)-one] |
| 20 | 1.4 | CCCc1c(Cc2ccc(-c3ccccc3-c3noc(=O)[nH]3)cc2)c(=O)n(C2CCC(C)OC2)c2nc(C)nn12 (stereo not shown) [Example 144, 2-methyl-4-(6-methyltetrahydro-2H-pyran-3-yl)-6-{[2′-(5-oxo-4,5-dihydro-1,2,4-oxadiazol-3-yl)biphenyl-4-yl]methyl}-7-propyl[1,2,4]triazolo[1,5-a]pyrimidin-5(4H)-one] |
